Test results reported in paper PMC12651750 (Cells, 2025).
Where two headings read alike, the source gives them in different places.

Columns and labels:
[1] = system: Jurkat cells; assay: Whole proteomic analysis (mass spectrometry); format: cell-based, human
Experimental: The cell cultivation was completed in a 60 mm plate; the number of cells accounted for roughly 30–40% of the orifice. We stimulated cells with 1 μM and 5 μM of NBU-2 and 0.1% DMSO. […] After 48 h, the cells were collected, about 200 μL of NP-40 Lysis Buffer containing phosphatase inhibitor and protease inhibitor was added, and the cells were lysed to release the proteins. Measure the protein concentration of each group of samples using the BCA protein quantification method. The disulfide bonds in the protein structure were reduced using TCEP and then alkylated with IAA. Samples were added to a centrifugal filtration unit with an ultrafiltration membrane, and proteins were digested using trypsin 2 times, the first time for 4 h and the second time overnight with the addition of an appropriate amount of trypsin. […] Samples were reconstituted using 0.1% formic acid, and approximately 1 μg of protein was taken for detection using mass spectrometry.
Mass spectrometry analysis was performed using an Orbitrap Fusion Lumos mass spectrometer (Thermo Fisher Scientific, Shanghai, China). Chromatographic separations were performed on an Acclaim PepMap C18 column using a 60 min linear gradient elution program: the proportion of mobile phase B (acetonitrile containing 0.1% formic acid) was increased from 2% to 35%, and the flow rate was maintained at 250 nL/min. […]

[2] = system: Jurkat cells; assay: Reactive oxygen species assay (DCFH-DA probe); format: cell-based, human; settings: 0.2, 1, 5 µM, 48 h; concentration-dependent
Experimental: Cells were treated with 0.2 µM, 1 µM, 5 µM, and DMSO for 48 h. Then the probes were loaded using serum-free medium and incubated for 20 min at 37 °C in a cell incubator. Next, the cells were collected.

[3] = system: Jurkat cells; assay: Cell cycle analysis (propidium iodide, flow cytometry); format: cell-based, human; settings: 48 h
Experimental: Jurkat cells were cultured to the appropriate density. Jurkat cells were stimulated with three concentration gradients of 0.2 µM, 1 µM, and 5 µM of NBU-2, and DMSO (as a control) for 48 h. Cells were collected, fixed overnight using pre-cooled 70% ethanol, and then stained according to the instructions. Subsequently, flow cytometry was used to detect using flow cytometry.

[4] = system: PC12, pheochromocytoma of the rat adrenal medulla; assay: Anti-proliferation MTT / CCK-8 assay; format: cell-based; settings: PC-12, 72 h
Description: (§1) K562, human erythroleukemia line; HL-60, human leukemic cell line; Jurkat, human leukemic T cell line; CCRF-CEM, human leukemic lymphoblasts; U937, human histiocytic lymphoma; HCT-116, human colorectal cancer cell line; A549, human lung cancer cell line; Hep G2, human hepatoma cell lines; MDA-MB-231, MCF-7, human breast cancer cell line; 4T1, mouse breast cancer cell line; PC12, pheochromocytoma of the rat adrenal medulla; HUVEC, human umbilical vein endothelial cells. These cells were purchased from the National Collection of Authenticated Cell Cultures (Shanghai, China).
(§2) The concentration of the cell suspension was adjusted to the appropriate concentration with fresh medium (the number of cells was about 30–40% of the bottom area of the well plate). 150 μL (about 1 × 10^4 cells) of prepared cell suspension containing different concentrations of NBU-2 were added to a 96-microtiter plate, and 3 replicate wells were set up for each concentration. If the cells were adherent, the cells were first allowed to grow overnight in 96 microtiter plates until the cells were adherent, and then the old medium was replaced with the drug-containing medium. The plates were incubated in a 5% CO2 cell incubator at 37 °C for 72 h. Then, 15 μL of MTT solution was added to each well, 100 μL of 10% SDS solution (pH = 2) was added after 4 h, and the plate was incubated at 37 °C with 5% CO2 overnight to fully dissolve the crystals. Finally, the absorbance value of each well was measured at 570 and 655 nm.
(§3) The cells (about 1 × 10^4 cells) were treated with different concentrations of NBU-2 and DMSO control for different times (24 h, 48 h, 72 h), with 3 replicate wells for each concentration. Incubate at 37 °C in a 5% CO2 cell culture incubator. After a predetermined time, 10 μL of CCK-8 was added to each well and incubated for 2 h. The absorbance was measured at the excitation wavelength of 450 nm.

[5] = system: MDA-MB-231, human breast cancer cell line; assay: Anti-proliferation MTT / CCK-8 assay; format: cell-based; settings: MDA-MB-231, read-out: IC50 proliferation MDA-MB-231, heading: IC50 proliferation MDA-MB-231, 72 h, mean ± SEM of three independent assays
Description: as §1, §2, §3

[6] = system: 4T1, mouse breast cancer cell line; assay: Anti-proliferation MTT / CCK-8 assay; format: cell-based; settings: 72 h
Description: as §1, §2, §3

[7] = system: CCRF-CEM, human leukemic lymphoblasts; assay: Anti-proliferation MTT / CCK-8 assay; format: cell-based
Description: as §1, §2, §3

[8] = system: HL-60, human leukemic cell line; assay: Anti-proliferation MTT / CCK-8 assay; format: cell-based
Description: as §1, §2, §3

[9] = system: K562, human erythroleukemia line; assay: Anti-proliferation MTT / CCK-8 assay; format: cell-based; settings: K562, read-out: IC50 proliferation K562, heading: IC50 proliferation K562, 72 h, mean ± SEM of three independent assays
Description: as §1, §2, §3

[10] = system: U937, human histiocytic lymphoma; assay: Anti-proliferation MTT / CCK-8 assay; format: cell-based
Description: as §1, §2, §3

[11] = system: Hep G2, human hepatoma cell lines; assay: Anti-proliferation MTT / CCK-8 assay; format: cell-based; settings: HepG2, read-out: IC50 proliferation HepG2, heading: IC50 proliferation HepG2, 72 h, mean ± SEM of three independent assays
Description: as §1, §2, §3

[12] = system: Jurkat cells; assay: Annexin V-FITC/PI apoptosis assay (flow cytometry); format: cell-based, human; settings: 48 h
Experimental: Apoptosis was assessed using an Annexin V-FITC Apoptosis Detection Kit according to the manufacturer’s instructions. Briefly, cells were double-stained with fluorescein isothiocyanate (FITC)-conjugated Annexin V and propidium iodide (PI). Jurkat cells were cultured to the appropriate density. Three sets of concentration gradients, namely 0.2 μM, 1 μM, and 5 μM, were established while DMSO was used as the control. The Jurkat cells were cultured for 48 h. Centrifuge at 1000× g for 5 min to precipitate the cells. We collected the cells, added the staining solution according to the instructions of the Annexin V-FITC Apoptosis Detection Kit to complete the staining, and immediately tested the cells on Flow cytometry.

## Cc1cccc2c(=O)c3c(NCCCCCC(=O)NO)ccc([N+](=O)[O-])c3[nH]c12 [NBU-2, N-hydroxy-6-((5-methyl-4-nitro-9-oxo-9,10-dihydroacridin-1-yl)amino)hexanamide]
[1]; 1 µM and 5 µM vs DMSO, p > 0.05
  Total Akt protein (proteomics): did not show any significant change
[1]; 48 h
  Expression of Rb (proteomics): not affected
[2]
  Levels of reactive oxygen species relative to DMSO: significantly increased
[3]; 0.2 μM
  Percentage of cells in G0/G1 phase (2N): 35.3%
[3]; 1 μM
  Percentage of cells in G0/G1 phase (2N): 40.4%
[3]; 5 μM
  Percentage of cells in G0/G1 phase (2N): 57.9%
[4]
  IC50: > 0.05 µM
[5]
  IC50: 8.76 ± 1.88 µM
[6]
  IC50: > 0.05 µM
[7]; 72 h, read-out: IC50 against CCRF-CEM
  IC50: < 5 µM
[7]; read-out: IC50 proliferation CCRF-CEM, 72 h, mean ± SEM of three independent assays
  IC50: 2.68 ± 0.3 µM
[8]; HL-60, 72 h, read-out: IC50 against HL-60
  IC50: < 5 µM
[8]; HL-60, read-out: IC50 proliferation HL-60, heading: IC50 proliferation HL-60, 72 h, mean ± SEM of three independent assays
  IC50: 1.92 ± 0.08 µM
[9]
  IC50: 7.02 ± 1.85 µM
[10]; U-937, 72 h, read-out: IC50 against U937
  IC50: < 5 µM
[10]; U-937, read-out: IC50 proliferation U937, heading: IC50 proliferation U937, 72 h, mean ± SEM of three independent assays
  IC50: 2.34 ± 1.08 µM
[11]
  IC50: 7.55 ± 0.46 µM
[12]; 0.2 μM
  Percentage of cells in early apoptotic stage (Q3): 11.5%
[12]; 1 μM
  Percentage of cells in early apoptotic stage (Q3): 16.1%
[12]; 5 μM
  Percentage of cells in early apoptotic stage (Q3): 84.7%
